# Data: PubChem BioAssay AID192 (DTP/NCI, 2004)
# Where “and” joins values, the source holds several entries; their conditions need not be identical. Equal entries are not always repeated. Toxic doses and inconclusive results are not listed. Numbered stars: 1 amine (or outer) side, 2 acyl side, 3 side chain; on linkers, the order of the positions; unused ones are H or OH. Bridge positions count the residues as written; N and C are the ends. Square brackets hold non-standard residues; d marks the D form. Peptide text beside a SMILES is read from it. I, II: the chains in the order shown. Actinocin(9to1) = Cc1c2oc3c(C)ccc(C(=O)[*:1])c3nc-2c(C(=O)[*:2])c(N)c1=O; NMeV = CN[CH](C(=O)O)C(C)C; Sar = CNCC(=O)O
# Test system: BDF1 mice, B16 melanoma ip, median survival T/C
# Assay: NCI In Vivo Anticancer Drug Screen. Data for tumor model B16 Melanoma (intraperitoneal) in B6D2F1 (BDF1) mice
# Conditions: endpoint: median survival time, higher = longer survival
# Procedure, shortened: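 Transplantable tumor model; survival or tumor size measured; reported as T/C, treated over vehicle control.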
# [1] = dose: 6.25 mg/kg/injection, schedule: Q01DX009 (ip), vehicle: saline with Tween-80
structure (smiles),measurement,setting,value
C1CC2CCC3CCCC4CCC(C1)C2C34 (stereo not drawn),T/C,"dose: 3.13 mg/kg/injection, schedule: Q01DX009 (ip), vehicle: saline with Tween-80",95 % of control
same,T/C,[1],89 % of control
Cc1n[nH]c2ccc([N+](=O)[O-])cc2c1=O,T/C,[1],97 % of control
same,T/C,"dose: 12.5 mg/kg/injection, schedule: Q01DX009 (ip), vehicle: saline with Tween-80",90 % of control
same,T/C,"dose: 25.0 mg/kg/injection, schedule: Q01DX009 (ip), vehicle: saline with Tween-80",95 % of control
N=N/C(=C\c1c(O)[nH]c2ccccc12)c1ccccc1,T/C,"dose: 50.0 mg/kg/injection, schedule: Q01DX009 (ip), vehicle: saline with Tween-80",98 % of control
same,T/C,"dose: 100.0 mg/kg/injection, schedule: Q01DX009 (ip), vehicle: saline with Tween-80",105 % of control
same,T/C,"dose: 200.0 mg/kg/injection, schedule: Q01DX009 (ip), vehicle: saline with Tween-80",98 % of control
same,T/C,"dose: 400.0 mg/kg/injection, schedule: Q01DX009 (ip), vehicle: saline with Tween-80",89 % of control
"Cc1c2oc3c(C)ccc(C(=O)NC4C(=O)NC(C(C)C)C(=O)N5CCCC5C(=O)N(C)CC(=O)N(C)C(C(C)C)C(=O)OC4C)c3nc-2c(C(=O)NC2C(=O)NC(C(C)C)C(=O)N3CCCC3C(=O)N(C)CC(=O)N(C)C(C(C)C)C(=O)OC2C)c(N)c1=O (stereo not drawn) (I: TVP[Sar][NMeV] / II: TVP[Sar][NMeV]; ester I:1-I:C, II:1-II:C; linker I:N-II:N via Actinocin(9to1); configuration not given here)",T/C,"dose: 0.06 mg/kg/injection, schedule: Q01DX009 (ip), vehicle: saline",165 % of control
same,T/C,"dose: 0.12 mg/kg/injection, schedule: Q01DX009 (ip), vehicle: saline",177 % of control and 180 % of control
CC(CN1CC(=O)NC(=O)C1)N1CC(=O)NC(=O)C1 (stereo not drawn),T/C,"dose: 3.75 mg/kg/injection, schedule: Q01DX009 (ip), vehicle: alkali diluted with saline",99 % of control
same,T/C,"dose: 3.75 mg/kg/injection, schedule: Q01DX009 (ip), vehicle: saline sonified",97 % of control
same,T/C,"dose: 3.75 mg/kg/injection, schedule: Q01DX009 (ip), vehicle: saline",102 % of control
same,T/C,"dose: 3.75 mg/kg/injection, schedule: Q04DX004 (ip), vehicle: saline",100 % of control
same,T/C,"dose: 4.0 mg/kg/injection, schedule: Q01DX009 (ip), vehicle: saline with Tween-80",114 % of control
same,T/C,"dose: 4.0 mg/kg/injection, schedule: Q01DX009 (ip), vehicle: saline",115 % of control
same,T/C,"dose: 7.5 mg/kg/injection, schedule: Q01DX009 (ip), vehicle: alkali diluted with saline",105 % of control
same,T/C,"dose: 7.5 mg/kg/injection, schedule: Q01DX009 (ip), vehicle: saline sonified",100 % of control
same,T/C,"dose: 7.5 mg/kg/injection, schedule: Q01DX009 (ip), vehicle: saline",104 % of control
same,T/C,"dose: 7.5 mg/kg/injection, schedule: Q04DX004 (ip), vehicle: saline",90 % of control
same,T/C,"dose: 8.0 mg/kg/injection, schedule: Q01DX009 (ip), vehicle: saline with Tween-80",105 % of control and 112 % of control and 118 % of control
same,T/C,"dose: 8.0 mg/kg/injection, schedule: Q01DX009 (ip), vehicle: saline",123 % of control
same,T/C,"dose: 15.0 mg/kg/injection, schedule: Q01DX009 (ip), vehicle: alkali diluted with saline",110 % of control
same,T/C,"dose: 15.0 mg/kg/injection, schedule: Q01DX009 (ip), vehicle: saline sonified",109 % of control
same,T/C,"dose: 15.0 mg/kg/injection, schedule: Q01DX009 (ip), vehicle: saline with Tween-80",110 % of control
same,T/C,"dose: 15.0 mg/kg/injection, schedule: Q01DX009 (ip), vehicle: saline",114 % of control
same,T/C,"dose: 15.0 mg/kg/injection, schedule: Q04DX004 (ip), vehicle: saline",88 % of control
same,T/C,"dose: 16.0 mg/kg/injection, schedule: Q01DX009 (ip), vehicle: saline with Tween-80",121 % of control and 123 % of control
same,T/C,"dose: 25.0 mg/kg/injection, schedule: Q04DX003 (ip), vehicle: Klucel (hydroxypropylcellulose) (HPC)",94 % of control and 97 % of control
same,T/C,"dose: 30.0 mg/kg/injection, schedule: Q01DX009 (ip), vehicle: alkali diluted with saline",119 % of control
same,T/C,"dose: 30.0 mg/kg/injection, schedule: Q01DX009 (ip), vehicle: saline sonified",119 % of control
same,T/C,"dose: 30.0 mg/kg/injection, schedule: Q01DX009 (ip), vehicle: saline with Tween-80",113 % of control
same,T/C,"dose: 30.0 mg/kg/injection, schedule: Q01DX009 (ip), vehicle: saline",121 % of control
same,T/C,"dose: 30.0 mg/kg/injection, schedule: Q01DX009 (oral), vehicle: saline",95 % of control
same,T/C,"dose: 30.0 mg/kg/injection, schedule: Q04DX004 (ip), vehicle: saline",90 % of control
same,T/C,"dose: 32.0 mg/kg/injection, schedule: Q01DX009 (ip), vehicle: Klucel (hydroxypropylcellulose) (HPC)",115 % of control
same,T/C,"dose: 32.0 mg/kg/injection, schedule: Q01DX009 (ip), vehicle: saline with Tween-80",122 % of control
same,T/C,"dose: 32.0 mg/kg/injection, schedule: Q04DX003 (ip), vehicle: saline with Tween-80",109 % of control and 110 % of control
same,T/C,"dose: 50.0 mg/kg/injection, schedule: Q04DX003 (ip), vehicle: Klucel (hydroxypropylcellulose) (HPC)",108 % of control and 110 % of control
same,T/C,"dose: 60.0 mg/kg/injection, schedule: Q01DX009 (ip), vehicle: saline with Tween-80",118 % of control
same,T/C,"dose: 60.0 mg/kg/injection, schedule: Q04DX004 (ip), vehicle: saline",111 % of control
same,T/C,"dose: 64.0 mg/kg/injection, schedule: Q01DX009 (ip), vehicle: Klucel (hydroxypropylcellulose) (HPC)",120 % of control
same,T/C,"dose: 64.0 mg/kg/injection, schedule: Q04DX003 (ip), vehicle: saline with Tween-80",108 % of control and 115 % of control
same,T/C,"dose: 64.0 mg/kg/injection, schedule: Q04DX003 (ip), vehicle: saline",115 % of control
same,T/C,"dose: 100.0 mg/kg/injection, schedule: Q04DX003 (ip), vehicle: Klucel (hydroxypropylcellulose) (HPC)",108 % of control and 112 % of control
same,T/C,"dose: 120.0 mg/kg/injection, schedule: Q01DX009 (ip), vehicle: saline with Tween-80",116 % of control
same,T/C,"dose: 128.0 mg/kg/injection, schedule: Q01DX009 (ip), vehicle: Klucel (hydroxypropylcellulose) (HPC)",120 % of control
same,T/C,"dose: 128.0 mg/kg/injection, schedule: Q04DX003 (ip), vehicle: saline with Tween-80",121 % of control
same,T/C,"dose: 128.0 mg/kg/injection, schedule: Q04DX003 (ip), vehicle: saline",121 % of control
same,T/C,"dose: 200.0 mg/kg/injection, schedule: Q04DX003 (ip), vehicle: Klucel (hydroxypropylcellulose) (HPC)",112 % of control
same,T/C,"dose: 400.0 mg/kg/injection, schedule: Q04DX003 (ip), vehicle: Klucel (hydroxypropylcellulose) (HPC)",108 % of control
same,T/C,"dose: 800.0 mg/kg/injection, schedule: Q04DX003 (ip), vehicle: Klucel (hydroxypropylcellulose) (HPC)",112 % of control
Cc1cc(C)c(NC(=O)Nc2cccc3ccccc23)c(C)c1,T/C,"dose: 25.0 mg/kg/injection, schedule: Q01DX009 (ip), vehicle: Klucel (hydroxypropylcellulose) (HPC)",91 % of control
same,T/C,"dose: 50.0 mg/kg/injection, schedule: Q01DX009 (ip), vehicle: Klucel (hydroxypropylcellulose) (HPC)",95 % of control
C=C(C)C12CC(C)C34OC5(CCCCCCCC(C)C6C(C)C(OC(=O)c7ccccc7)C(O)(C(O)C7(COC(=O)CCCCCCCCCCCCCCC)OC7C3C1O5)C64)O2 (stereo not drawn),T/C,"dose: 1.5 micrograms/kg/injection, schedule: Q01DX009 (ip), vehicle: saline",107 % of control
same,T/C,"dose: 1.9 micrograms/kg/injection, schedule: Q01DX009 (ip), vehicle: Klucel (hydroxypropylcellulose) (HPC)",102 % of control
same,T/C,"dose: 3.1 micrograms/kg/injection, schedule: Q01DX009 (ip), vehicle: saline",100 % of control
same,T/C,"dose: 3.8 micrograms/kg/injection, schedule: Q01DX009 (ip), vehicle: Klucel (hydroxypropylcellulose) (HPC)",88 % of control
same,T/C,"dose: 6.2 micrograms/kg/injection, schedule: Q01DX009 (ip), vehicle: saline",104 % of control
same,T/C,"dose: 7.5 micrograms/kg/injection, schedule: Q01DX009 (ip), vehicle: Klucel (hydroxypropylcellulose) (HPC)",98 % of control
same,T/C,"dose: 12.5 micrograms/kg/injection, schedule: Q01DX009 (ip), vehicle: saline",95 % of control
same,T/C,"dose: 15.0 micrograms/kg/injection, schedule: Q01DX009 (ip), vehicle: Klucel (hydroxypropylcellulose) (HPC)",87 % of control
same,T/C,"dose: 25.0 micrograms/kg/injection, schedule: Q01DX009 (ip), vehicle: saline",102 % of control
same,T/C,"dose: 50.0 micrograms/kg/injection, schedule: Q01DX009 (ip), vehicle: saline",96 % of control
CC1CC(C)CC(C)C(O)/C(C#N)=C/C=C/CC(C2CCCC2C(=O)O)OC(=O)CC(O)C(C)C1 (stereo not drawn),T/C,"dose: 0.12 mg/kg/injection, schedule: Q01DX009 (ip), vehicle: Klucel (hydroxypropylcellulose) (HPC)",111 % of control
same,T/C,"dose: 0.12 mg/kg/injection, schedule: Q01DX009 (ip), vehicle: saline with Tween-80",119 % of control
same,T/C,"dose: 0.25 mg/kg/injection, schedule: Q01DX009 (ip), vehicle: Klucel (hydroxypropylcellulose) (HPC)",108 % of control
same,T/C,"dose: 0.25 mg/kg/injection, schedule: Q01DX009 (ip), vehicle: saline with Tween-80",113 % of control
same,T/C,"dose: 0.5 mg/kg/injection, schedule: Q01DX009 (ip), vehicle: Klucel (hydroxypropylcellulose) (HPC)",110 % of control
same,T/C,"dose: 1.0 mg/kg/injection, schedule: Q01DX009 (ip), vehicle: Klucel (hydroxypropylcellulose) (HPC)",107 % of control
same,T/C,"dose: 2.0 mg/kg/injection, schedule: Q01DX009 (ip), vehicle: Klucel (hydroxypropylcellulose) (HPC)",105 % of control
same,T/C,"dose: 4.0 mg/kg/injection, schedule: Q01DX009 (ip), vehicle: Klucel (hydroxypropylcellulose) (HPC)",98 % of control
